According to ChEMBL document CHEMBL3727348, “3-(aryl or heteroaryl) methyleneindolin-2-one derivatives as inhibitors of cancer stem cell pathway kinases for the treatment of cancer” (2014):
pIC50: −log10 of the molar value.

Key:
Assay type in all cases: functional, cell-based
[1] = system: ACHN; assay: Cytotoxic activity against human ACHN bulk cells incubated for 72 hrs by Cell-titer-Glo luminescence assay
[2] = system: FaDu; assay: Cytotoxic activity against human FADU bulk cells incubated for 72 hrs by Cell-titer-Glo luminescence assay
[3] = system: ACHN; assay: Cytotoxic activity against human ACHN cancer stem cells incubated for 72 hrs by Cell-titer-Glo luminescence assay
[4] = system: FaDu; assay: Cytotoxic activity against human FADU cancer stem cells incubated for 72 hrs by Cell-titer-Glo luminescence assay
[5] = system: A549; assay: Cytotoxic activity against human A549 bulk cells incubated for 72 hrs by Cell-titer-Glo luminescence assay; conditions: A549, 72 h
[6] = system: A549; assay: Cytotoxic activity against human A549 cancer stem cells incubated for 72 hrs by Cell-titer-Glo luminescence assay; conditions: A549, 72 h

| Compound | pIC50 [1] | pIC50 [2] | pIC50 [3] | pIC50 [4] | pIC50 [5] | pIC50 [6] |
| --- | --- | --- | --- | --- | --- | --- |
| CCN(CC)CCNC(=O)c1cc(C)c(/C=C2\C(=O)Nc3ccc(-c4csc(-c5ccccc5)n4)cc32)[nH]1 | 4.83 | 4.94 | 5.39 | 5.50 | 5.40 | 4.57 |
| Cc1[nH]c(/C=C2\C(=O)Nc3ccc(-c4ccc(-c5ccccc5)s4)cc32)c(C)c1C(=O)N1CCOCC1 | 4.89 | 4.68 | 6.64 | 5.61 | 4.99 | 4.96 |
| Cc1[nH]c(/C=C2\C(=O)Nc3ccc(-c4csc(-c5ccccc5)n4)cc32)c(C)c1S(=O)(=O)N1CCOCC1 | 4.97 | 4.94 | 6.25 | 6.68 | 5.14 | 5.43 |
| CCN(CC)CCNC(=O)c1c(C)[nH]c(/C=C2\C(=O)Nc3ccc(-c4cncnc4)cc32)c1C | 5.44 | 5.34 | 6.26 | 5.00 | 5.13 | 4.75 |
| CCN(CC)CCNC(=O)c1c(C)[nH]c(/C=C2\C(=O)Nc3ccc(-c4cnc5cccnn45)cc32)c1C | 5.44 | 5.76 | 5.56 | 7.22 | 5.44 | 5.18 |
| CCN(CC)CCNC(=O)c1c(C)[nH]c(/C=C2\C(=O)Nc3ccc(-c4cnsc4)cc32)c1C | 5.34 | 5.50 | 6.19 | 5.47 | 5.42 | 5.18 |
| CCN(CC)CCNC(=O)c1c(C)[nH]c(/C=C2\C(=O)Nc3ccc(-c4cscc4C)cc32)c1C | 5.57 | 5.43 | 6.32 | 5.04 | 5.70 | 5.40 |
| CCN(CC)CCNC(=O)c1c(C)[nH]c(/C=C2\C(=O)Nc3ccc(-c4cc(-c5ccccc5)ccn4)cc32)c1C | 5.62 | 5.59 | 6.05 | 5.01 | 5.82 | 5.70 |
| Cc1ccc(-c2nc(-c3ccc4c(c3)/C(=C/c3[nH]c(C)c(C(=O)NCCN5CCCC5)c3C)C(=O)N4)cs2)cc1 | 5.63 | 5.37 | 6.85 | 6.51 | 5.22 | 4.91 |
| CCN(CC)CCNC(=O)c1c(C)[nH]c(/C=C2\C(=O)Nc3ccc(-c4csc(-n5cccn5)n4)cc32)c1C | 5.10 | 5.33 | 6.21 | 5.29 | 5.43 | 5.18 |
| Cc1cc(C)c(/C=C2\C(=O)Nc3ccc(-c4csc(-n5ccnc5)n4)cc32)[nH]1 | 5.05 | 4.84 | 5.57 | 4.43 | 5.03 | 4.46 |
| CCN(CC)CCNC(=O)c1c(C)[nH]c(/C=C2\C(=O)Nc3ccc(-c4cnccn4)cc32)c1C | 5.00 | 5.18 | 5.58 | 6.64 | 4.98 | 4.88 |
| CCN(CC)CCNC(=O)c1c(C)[nH]c(/C=C2\C(=O)Nc3ccc(-c4ncccn4)cc32)c1C | 5.46 | 5.22 | 5.94 | 7.05 | 4.81 | 4.74 |
| CCN(CC)CCNC(=O)c1c(C)[nH]c(/C=C2\C(=O)Nc3cc(-c4ccc(O)cc4C)ccc32)c1C | 5.60 | 5.67 | 5.66 | 5.81 | 5.56 | 5.12 |
| CCN(CC)CCNC(=O)CCc1c(C)[nH]c(/C=C2\C(=O)Nc3ccc(-c4csc(-c5ccncc5)n4)cc32)c1C | 5.13 | 4.55 | 5.91 | 5.34 | 5.00 | 4.45 |
| CCN(CC)CCNC(=O)c1c(C)[nH]c(/C=C2\C(=O)Nc3ccc(-c4ccc(C)cn4)cc32)c1C | 5.53 | 5.52 | 5.94 | 6.66 | 5.19 | 5.47 |
| O=C1Nc2ccc(-c3csc(-c4ccncc4)n3)cc2/C1=C/c1cnc[nH]1 | 5.44 | 5.78 | 4.54 | 4.66 | 5.04 | 5.14 |
| CCN(CC)CCNC(=O)c1c(C)[nH]c(/C=C2\C(=O)Nc3ccc(-c4ncccc4OC)cc32)c1C | 5.15 | 5.58 | 5.85 | 7.15 | 5.13 | 5.16 |
| CCN(CC)CCNC(=O)c1c(C)[nH]c(/C=C2\C(=O)Nc3ccc(-c4cnc5ccccc5c4)cc32)c1C | 5.19 | 5.34 | 6.21 | 5.26 | 5.41 | 5.17 |
| CCN(CC)CCNC(=O)c1c(C)[nH]c(/C=C2\C(=O)Nc3ccc(-c4cnc5ccccn45)cc32)c1C | 5.33 | 5.33 | 5.46 | 4.75 | 5.23 | 4.76 |
| CCN(CC)CCNC(=O)c1c(C)[nH]c(/C=C2\C(=O)Nc3ccc(-c4cccc(C#N)c4C)cc32)c1C | 5.28 | 5.37 | 6.24 | 5.33 | 5.55 | 5.35 |
| CCN(CC)CCNC(=O)c1c(C)[nH]c(/C=C2\C(=O)Nc3ccc(-c4ccccn4)cc32)c1C | 5.65 | 5.59 | 5.97 | 6.74 | 5.14 | 5.26 |
| CCN(CC)CCNC(=O)c1c(C)[nH]c(/C=C2\C(=O)Nc3ccc(-c4cccc(OC)n4)cc32)c1C | 5.71 | 5.75 | 6.62 | 6.72 | 5.55 | 5.65 |
| CCN(CC)CCNC(=O)c1c(C)[nH]c(/C=C2\C(=O)Nc3ccc(-c4ccncc4)cc32)c1C | 4.94 | 5.17 | 5.67 | 4.79 | 5.15 | 5.01 |
| COC(=O)c1c(C)[nH]c(/C=C2\C(=O)Nc3ccc(-c4csc(-c5ccncc5)n4)cc32)c1C | 4.90 | 4.73 | 5.21 | 5.17 | 5.02 | 5.32 |
| O=C1Nc2ccc(-c3csc(C4CCNCC4)n3)cc2/C1=C/c1cc2ccccc2[nH]1 | 5.39 | 5.29 | 7.00 | 6.12 | 5.26 | 5.69 |
| CCN(CC)CCNC(=O)c1c(C)[nH]c(/C=C2\C(=O)Nc3ccc(-c4ccc5c(c4)CC(=O)N5)cc32)c1C | 4.72 | 4.60 | 4.68 | 4.81 | 4.71 | 4.53 |
| CCN(CC)CCNC(=O)c1c(C)[nH]c(/C=C2\C(=O)Nc3ccc(-c4ccc(OC)cc4C)cc32)c1C | 5.65 | 5.64 | 5.85 | 5.85 | 5.76 | 5.34 |
| CCN(CC)CCNC(=O)CCc1c(C)[nH]c(/C=C2\C(=O)Nc3ccc(-c4csc(-c5ccccc5)n4)cc32)c1C | 5.61 | 5.41 | 5.37 | 5.45 | 5.95 | 5.06 |
| CCN(CC)CCNC(=O)c1c(C)[nH]c(/C=C2\C(=O)Nc3ccc(-c4nc5ccccc5s4)cc32)c1C | 5.02 | 5.31 | 6.01 | 5.22 | 5.43 | 5.38 |
